Literature values as cited in patent US20200020419A1, “METHODS OF ANALYZING CELLS” (Flagship Pioneering Innovations VI, LLC., priority 2018, published 2020).

SMILES	induction of transition of a mouse progenitor cell into a mouse neuron, known in the literature (mouse “progenitor” cell)	induction of transition of a MEF into a mouse progenitor cell, known in the literature (MEF)
Cc1ccc(-c2nn(C(C)(C)C)c3ncnc(N)c23)cc1 [PP1]	known in the literature to be associated with induction of transition of a mouse “progenitor” cell into a mouse neuron	
CC(C)(C)n1nc(-c2ccc(Cl)cc2)c2c(N)ncnc21 [PP2]	known in the literature to be associated with induction of transition of a mouse “progenitor” cell into a mouse neuron	
CC(/C=C/C(=O)NO)=C\[C@@H](C)C(=O)c1ccc(N(C)C)cc1 [Trichostatin A]		known in the literature to be associated with induction of transition of a MEF into a mouse “progenitor” cell
